{"source": "patent US10092575B2", "about": "“Substituted thiophene- and furan-fused azolopyrimidine-5-(6H)-one compounds” (DART NEUROSCIENCE (CAYMAN) LTD., priority 2012, dated 2018)"}
{"biological_target": "human PDE1b enzyme (Homo sapiens (Human), UniProt Q01064)", "experiment": "PDE1b inhibitory assay (IMAP TR-FRET)", "conditions": "not given", "units": {"EC50": "nM"}}
{"smiles": "COc1ccc(Cn2c(=O)n3ncnc3c3cc(CN(C)CC4(C)COC4)sc32)c(F)c1F", "note": "[Example 210, 6-(2,3-Difluoro-4-methoxybenzyl)-8-((methyl((3-methyloxetan-3-yl)methyl)amino)methyl)thieno[3,2-e][1,2,4]triazolo[1,5-c]pyrimidin-5(6H)-one]", "EC50": "100 to 1000"}
{"smiles": "COc1ccc(Cn2c(=O)n3ncnc3c3cc(CNCC4(C)COC4)sc32)cc1", "note": "[Example 211]", "EC50": "100 to 1000"}
{"smiles": "COc1ccc(Cn2c(=O)n3ncnc3c3cc(CN4CC(O)C4)sc32)c(F)c1F", "note": "[Example 212, 6-(2,3-Difluoro-4-methoxybenzyl)-8-((3-hydroxyazetidin-1-yl)methyl)thieno[3,2-e][1,2,4]triazolo[1,5-c]pyrimidin-5(6H)-one]", "EC50": "100 to 1000"}
{"smiles": "COc1ccc(Cn2c(=O)n3ncnc3c3cc(CN4CC(O)C4)sc32)c(F)c1", "note": "[Example 213, 6-(2-Fluoro-4-methoxybenzyl)-8-((3-hydroxyazetidin-1-yl)methyl)thieno[3,2-e][1,2,4]triazolo[1,5-c]pyrimidin-5(6H)-one]", "EC50": "100 to 1000"}
{"smiles": "COc1ccc(Cn2c(=O)n3ncnc3c3cc(CN(C)C)sc32)c(F)c1F", "note": "[Example 214, 6-(2,3-Difluoro-4-methoxybenzyl)-8-((dimethylamino)methyl)thieno[3,2-e][1,2,4]triazolo[1,5-c]pyrimidin-5(6H)-one]", "EC50": "100 to 1000"}
{"smiles": "COc1ccc(Cn2c(=O)n3ncnc3c3c(CN(C(C)C)C(C)C)csc32)cc1", "note": "[Example 215, 9-((Diisopropylamino)methyl)-6-(4-methoxybenzyl)thieno[3,2-e][1,2,4]triazolo[1,5-c]pyrimidin-5(6H)-one]", "EC50": "100 to 1000"}
{"smiles": "COc1ccc(Cn2c(=O)n3ncnc3c3c4c(sc32)CN(CC(C)C)CC4(F)F)cc1", "note": "[Example 218, 11,11-Difluoro-9-isobutyl-6-(4-methoxybenzyl)-8,9,10,11-tetrahydropyrido[4′,3′:4,5]thieno[3,2-e][1,2,4]triazolo[1,5-c]pyrimidin-5 (6H)-one]", "EC50": "100 to 1000"}
{"smiles": "COc1ccc(Cn2c(=O)n3ncnc3c3c4c(sc32)NCCC4)cc1", "note": "[Example 221, 6-(4-Methoxybenzyl)-8,9,10,11-tetrahydropyrido[3′,2′:4,5]thieno[3,2-e][1,2,4]triazolo[1,5-c]pyrimidin-5(6H)-one]", "EC50": "100 to 1000"}
{"biological_target": "human PDE1b enzyme (Homo sapiens (Human), UniProt Q01064)", "experiment": "PDE1b inhibitory assay (IMAP TR-FRET)", "conditions": "negative log of half-maximal molar inhibitory concentration; 200 nM FAM-cAMP; reported as ranges"}
{"smiles": "O=c1n(Cc2ccc(F)c(Cl)c2)c2sc(CN3CCOCC3)cc2c2ncnn12", "note": "[Example 209, 6-(3-Chloro-4-fluorobenzyl)-8-(morpholinomethyl)thieno[3,2-e][1,2,4]triazolo[1,5-c]pyrimidin-5(6H)-one]", "PDE1b (pEC50)": ">7"}
{"smiles": "COc1ccc(Cn2c(=O)n3ncnc3c3c4c(sc32)CCN(CC2CCOCC2)C4)cc1", "note": "[Example 216, 6-(4-Methoxybenzyl)-10-((tetrahydro-2H-pyran-4-yl)methyl)-8,9,10,11-tetrahydropyrido[3′,4′:4,5]thieno[3,2-e][1,2,4]triazolo[1,5-c]pyrimidin-5(6H)-one]", "PDE1b (pEC50)": "<5"}
{"smiles": "COc1ccc(Cn2c(=O)n3ncnc3c3c4c(sc32)CNCCC4)cc1", "note": "[Example 217, 6-(4-Methoxybenzyl)-6,8,9,10,11,12-hexahydro-5H-[1,2,4]triazolo[1″,5″:1′,6′]pyrimido[5′,4′:4,5]thieno[2,3-c]azepin-5-one]", "PDE1b (pEC50)": ">7"}
{"smiles": "COc1ccc(Cn2c(=O)n3ncnc3c3c4c(sc32)CNCC4(F)F)cc1", "note": "[Example 219, 11,11-Difluoro-6-(4-methoxybenzyl)-8,9,10,11-tetrahydropyrido[4′,3′:4,5]thieno[3,2-e][1,2,4]triazolo[1,5-c]pyrimidin-5 (6H)-one]", "PDE1b (pEC50)": ">7"}
{"smiles": "COc1ccc(Cn2c(=O)n3ncnc3c3c4c(sc32)NCCC4)cc1", "note": "[Example 220, 6-(4-Methoxybenzyl)-8,9,10,11-tetrahydropyrido[3′,2′:4,5]thieno[3,2-e][1,2,4]triazolo[1,5-c]pyrimidin-5(6H)-one]", "PDE1b (pEC50)": ">7"}
{"system": "NS1 cells", "experiment": "Neurite outgrowth (NOG) assay", "type": "cell-based", "conditions": "alone, without forskolin", "protocol": "(§1) Neuroscreen 1 (NS1) Cells (Cellomics Inc.) were cultured on collagen type I coated 75 cm2 plastic flasks (Biocoat, Becton Dickinson) in a humidified incubator at 37° C. in 5% CO2. Cells were cultured in RPMI complete cell culture medium (Cambrex) supplemented with 10% heat-inactivated horse serum (Invitrogen), 5% heat-inactivated fetal bovine serum (Cellgro), and 2 mM L-glutamine (Cambrex). For expansion, the cells were trypsinized and split at 80% confluence. Cell culture media was changed every 2 to 3 days.\n(§2) NS1 cells were harvested and counted using a Coulter counter (Becton Dickinson Coulter Z1). Cells were seeded in 96-well collagen I coated plates at a density of 2000 cells per well in volume of […]. RPMI media was supplemented with 200 ng/ml nerve growth factor (NGF, Sigma). NS1 cells were incubated for 72 hours to allow differentiation to a neuronal phenotype. […]\n(§3) Antibody-stained 96-well plates were stored at 4° C. in the dark until scanning. […] The neurite outgrowth assay is based on two channels to scanning: (1) Channel 1, which detects the Hoechst Dye and is used by the software to identify cells and for automated focusing; and (2) Channel 2, which detects the FITC fluorescence of the secondary antibody and is used by the software to calculate all data generated in reference to neurites. […]"}
{"smiles": "COc1ccc(C2CNC(=O)C2)cc1OC1CCCC1", "note": "(stereo not drawn) [Rolipram]", "neurite length and branching / neurite outgrowth": "not affected"}
{"system": "NS1 cells", "experiment": "Neurite outgrowth (NOG) assay", "type": "cell-based", "conditions": "in combination with forskolin", "protocol": "as §1, §2, §3"}
{"smiles": "COc1ccc(C2CNC(=O)C2)cc1OC1CCCC1", "note": "(stereo not drawn) [Rolipram]", "neurite length and branching / neurite outgrowth": "enhanced in dose-dependent manner"}
